System: Staphylococcus aureus
Assay: Antimicrobial effectiveness testing (log reduction of bacteria, 15 seconds exposure)
Assay type: cell-based
Conditions: 15 seconds at 25±1° C., undiluted
Method: The tests were performed on broth cultures that were passed through at least three consecutive daily transfers but no more than ten daily transfers. The broth cultures were diluted with the appropriate broth to obtain an inoculum count of 6×10^8 to 1×10^9 CFU/ml (Mac Farland Standard ˜2.0 to 3.0). The test article was used undiluted. The exposure time and temperature was 15 seconds at 25±1° C., respectively. All tests involving the test article were conducted in triplicate. A 4.95 gram sample of the test article was placed in a sterile, screw-top 50 ml polyethylene tube at 25±1° C. The test article was inoculated with 0.05 ml of the test organism at the appropriate concentration. The tube contents were neutralized by the addition of 45 ml of Neutralizer (Tryptic or Trypticase Soy Broth (TSB) with 10% TWEEN 80, 3% Lecithin, 0.5% Sodium thiosulfate and 0.1% Histidine, pH 7.2±0.1) followed by vortexing. One ml of the neutralized sample (10^−1 dilution) was serially diluted in 10-fold steps to 10^−6 for the test article and to 10^−7 for the numbers control using tubes containing 9 ml of AOAC Neutralizer blanks. An inoculum count was determined by 10-fold serial dilutions to 10^−8 using tubes containing 9 ml of AOAC phosphate buffered dilution water. The dilutions were plated in duplicate on Letheen Agar, and plates were incubated in an inverted position for the appropriate time and at a temperature appropriate for the test organism. The test organism was a single species of Staphylococcus aureus.
Antimicrobial effectiveness was determined by calculating the log reduction of bacteria in the test sample. For comparison, the log reduction for a 0.02% CHX-gluconate solution is 0.5, the log reduction for a 0.13% BAC solution is 0.5, and the log reduction for a 1% cocamidopropyl PG-dimonium chloride phosphate solution is 2. When added together, the total log reduction for the three ingredients tested individually is 3.

CCCCCCCCCCCC(=O)NCCC[N+](C)(C)CC(O)COP(=O)([O-])OCC(O)C[N+](C)(C)CCCNC(=O)CCCCCCCCCCC.[Cl-].[Cl-].[Na+] (stereo not drawn) [cocamidopropyl PG-dimonium chloride phosphate]
log reduction (1% solution): 2

N=C(NCCCCCCNC(=N)NC(=N)Nc1ccc(Cl)cc1)NC(=N)Nc1ccc(Cl)cc1.O=C(O)[C@H](O)[C@@H](O)[C@H](O)[C@H](O)CO.O=C(O)[C@H](O)[C@@H](O)[C@H](O)[C@H](O)CO [CHX-gluconate, chlorhexidine gluconate]
log reduction (0.02% solution): 0.5

benzalkonium chloride [BAC]
log reduction (0.13% solution): 0.5
